Legend:
[1] = tested on: Bovine Pulmonary Artery Endothelium; assay: Transendothelial electrical resistance (TER) across bovine pulmonary artery endothelium; format: cell-based; settings: VEGF 100 ng/ml, Sph 1-P 1 μM, HGF 20 ng/ml
Procedure: Bovine pulmonary artery endothelial cells were purchased from the American Type Culture Collection (ATCC®, Rockville, Md.) and utilized at passage 19-24. Cells were maintained in Medium 199 (Life Technologies, Rockville, Md.) supplemented with 20% (v/v) colostrum-free bovine serum (CFBS) (Irvine Scientific, Santa Ana, Calif.), 15 μg/ml endothelial cell growth supplement (Upstate Biotechnology, Lake Placid, N.Y.), 1% antibiotic and antimycotic, and 0.1 mM non-essential amino acids (Life Technologies). Human pulmonary artery endothelial cells were purchased from Clonetics (Walkersville, Md.), cultured in EBM-2 complete medium (Clonetics) and utilized at passage 5-10. Human alveolar epithelial cells (A549) were purchased from ATCC® and cultured in the same medium as the bovine endothelial cells, except that the endothelial cell growth supplement was omitted. All cells were maintained at 37° C. in a humidified atmosphere of 5% CO2 and 95% air.
Electrical resistance of EC monolayers was measured using electrical cell impedance sensor system (Applied Biophysics Inc., Troy, N.Y.) as described in Garcia, J. G. N. et al. (2000) J. Appl. Physiol. 89:2333-2343. Cells grown on gold microelectrodes (10^−3 cm^2) in polycarbonate wells act as insulating particles, and the resistance across the monolayers (transendothelial electrical resistance, or TER) is measured in real time. As cells adhere on the microelectrode and intercellular cell contacts are formed or in response to agents which increase junctional integrity, the TER increases (Garcia, J. G. N. et al. (2001) J. Clin. Invest. 108:689-711). In contrast, cell retraction, rounding, or loss of adhesion is reflected by decreases in TER (Garcia, J. G. N. et al. (2000) J. Appl. Physiol. 89:2333-2343). These measurements provide a highly sensitive biophysical assay that indicates the state of cell shape, focal adhesion, and endothelial barrier function (Giaever, I. and Keese, C. R. (1993) Nature 366:591-592; Tiruppathi, C. et al. (1992) Proc. Natl. Acad. Sci. USA 89:7919-7923). All electrical resistance data are presented as normalized values. Briefly, current was applied across the electrodes by a 4000 Hz AC voltage source with an amplitude of 1 V in series with a 1 MΩ resistance to approximate a constant current source (−1 μA). The small gold electrode and the larger counter electrode (1 cm^2) were connected to a phase-sensitive lock-in amplifier (5301A; EG&G Instruments Corp, Princeton, N.J.) with a built in differential preamplifier (5316A; EG&G Instruments Corp.). The in-phase and out-of-phase voltages between the electrodes were monitored in real time with the lock-in amplifier and converted to scalar measurements of transendothelial impedance, of which resistance was the primary focus. […] For some experiments, total TER was vectorially resolved into components reflecting resistance to current flow beneath the cell layer (α) and resistance to current flow between adjacent cells (Rb) as described in Garcia et al. (2000) supra utilizing the method of Giaiver and Keese which models the endothelial monolayer mathematically (Giaever, I. and Keese, C. R. (1993) Nature 366:591-592). Thus, changes in α reflect alterations in the net state of cell-matrix adhesion, whereas changes in Rb reflect alterations in the integrity of cell-cell adhesion. TER values from each microelectrode were pooled at discrete time points and plotted versus time as the mean±standard error of the mean (Garcia et al. (2000) supra).

PKCα = PKCα activation (phospho-PKC immunoreactivity, membrane translocation); format: cell-based, human; settings: after HGF
Procedure: Endothelial cell monolayers grown to confluence in 12-well plates and challenged with HGF were lysed with 100 μl of 2×SDS sample buffer, and cell lysates were transferred into microcentrifuge tubes and boiled for 5 min. After a brief spin, proteins from 10 μl cell lysates were separated on 12% SDS-PAGE and transferred to nitrocellulose (Schleicher & Schuell, Keene, N.H.) (30V, 18 h). After blocking with PBST (PBS with 0.1% Tween 20) containing 5% non-fat milk for 1 hr, nitrocellulose blots were reacted with primary antibodies diluted in PBST containing 5% BSA for 1 hr, washed with PBST (3×10 min), incubated with peroxidase-conjugated secondary antibodies (goat anti-rabbit IgG, 1:10,000 dilution, Sigma; or goat anti-mouse IgG, 1:10,000 dilution, Bio-Rad Labs, Richmond, Calif.) diluted in PBST with 5% non-fat milk for 1 hr and again washed with PBST (3×10 min). Finally, immunoreactive proteins were detected using ECL. The relative intensities of the protein bands were quantified by scanning densitometry.
Endothelial cells were fractionated into cytosolic, membrane, and nuclear/cytoskeleton fractions as described in Borbiev, T. et al. (2001) Am. J. Physiol. Lung Cell. Mol. Physiol. 280:L983-L990. […]

[2] = vs vehicle control, ±SEM, thrombin 100 μM

## HGF: heparin-binding glycoprotein, multifunctional cytokine, ligand of c-Met; purchased from R&D Systems
[1]; thrombin, 10-60 min
  TER response in words: brisk and sustained increase in TER
[1]; [2]
  changes in TER 30 min: +35 ± 5%
  changes in TER 60 min: +35 ± 4%
[1]; vs vehicle control, ±SEM, thrombin 100 μM, (+) increased, (−) decreased
  changes in TER 10 min: +25 ± 3%
PKCα
  time at which PKCα activation is detectable (phospho-PKC immunoreactivity): 15 min
  time of PKCα translocation to the membrane fraction: 5 min

From patent publication US20050004029A1, “Methods and compositions for treating vascular leak using hepatocyte growth factor” (priority 2001, published 2005)
